{
  "source": "patent US12575571B2",
  "about": "“1-amino-1-cyclopropanecarboxylic acid and methyl jasmonate mixtures and uses thereof” (Valent BioSciences LLC, priority 2022, dated 2026)",
  "key": {"[1]": {"tested_on": "unripened apples, Imperial Gala variety", "assay": "Apple coloration in Imperial Gala variety (percent red pixel area after foliar spray)", "format": "in vivo", "conditions": "34 hours post spray; for Fold Change From control: vs 0.05% Regulaid control", "description": "(§1) 10 sets of unripened apples, Imperial Gala variety, harvested three weeks before the normal harvest date, were each foliar sprayed with either 1) 0.05% Regulaid® as a control, 2) 50 ppm methyl jasmonate, 3) 300 ppm methyl jasmonate, 4) 50 ppm ACC, 5) 300 ppm ACC or 6) a mixture of 50 ppm methyl jasmonate and 50 ppm ACC or 7) a mixture of 300 ppm methyl jasmonate and 300 ppm ACC. 34 hours post spray application percent red pixel area (shaded) was measured. Percent red pixel area is an indication of the coloration of the apple fruit.\n(§2) To determine if the mixture provided unexpected results, the observed combined efficacy (“OCE”) was divided by the expected combined efficacy (“ECE”) wherein the ECE is calculated by the Abbott method: ECE=A+B−(AB/100), wherein ECE is the expected combined efficacy and in which A and B are the fold change from control given by the single active ingredients. If the ratio between the OCE of the mixture and the ECE of the mixture is greater than 1, then greater than expected interactions are present in the mixture. (Gisi, Synergistic Interaction of Fungicides in Mixtures, The American Phytopathological Society, 86:11, 1273-1279,1996)."}, "[2]": {"tested_on": "unripened apples, Ultima Gala variety", "assay": "Apple coloration in Ultima Gala variety (percent red pixel area after foliar spray)", "format": "in vivo", "conditions": "34 hours post spray; for Fold Change From control: vs 0.05% Regulaid control", "description": "as §2\nas §1, with “Ultima” for “Imperial”"}, "[3]": {"conditions": "50 ppm (each active) foliar spray"}, "[4]": {"conditions": "300 ppm (each active) foliar spray"}},
  "data": [
    {"compound": "CC/C=C\\CC1C(=O)CCC1CC(=O)OC", "note": "(centres unmarked) [methyl jasmonate]", "values": [
      {"measurement": "Average % Red Pixel Area", "setting": "[1]; [3]", "value": 63.31, "unit": "%"},
      {"measurement": "Fold Change From control", "setting": "[1]; 50 ppm (each active)", "value": 8.31},
      {"measurement": "Average % Red Pixel Area", "setting": "[1]; [4]", "value": 47.60, "unit": "%"},
      {"measurement": "Fold Change From control", "setting": "[1]; 300 ppm (each active)", "value": 6.00},
      {"measurement": "Average % Red Pixel Area", "setting": "[2]; [3]", "value": 36.64, "unit": "%"},
      {"measurement": "Fold Change From control", "setting": "[2]; 50 ppm (each active)", "value": 2.30},
      {"measurement": "Average % Red Pixel Area", "setting": "[2]; [4]", "value": 46.37, "unit": "%"},
      {"measurement": "Fold Change From control", "setting": "[2]; 300 ppm (each active)", "value": 3.17}
    ]}
  ]
}
